Data as given in doi:10.1101/2021.03.24.436638v1 (biorxiv, 2021).

Target: T1, GlyT2 (wtGlyT2) (Rattus norvegicus, UniProt P58295)
T1 sequence (P58295 1-799): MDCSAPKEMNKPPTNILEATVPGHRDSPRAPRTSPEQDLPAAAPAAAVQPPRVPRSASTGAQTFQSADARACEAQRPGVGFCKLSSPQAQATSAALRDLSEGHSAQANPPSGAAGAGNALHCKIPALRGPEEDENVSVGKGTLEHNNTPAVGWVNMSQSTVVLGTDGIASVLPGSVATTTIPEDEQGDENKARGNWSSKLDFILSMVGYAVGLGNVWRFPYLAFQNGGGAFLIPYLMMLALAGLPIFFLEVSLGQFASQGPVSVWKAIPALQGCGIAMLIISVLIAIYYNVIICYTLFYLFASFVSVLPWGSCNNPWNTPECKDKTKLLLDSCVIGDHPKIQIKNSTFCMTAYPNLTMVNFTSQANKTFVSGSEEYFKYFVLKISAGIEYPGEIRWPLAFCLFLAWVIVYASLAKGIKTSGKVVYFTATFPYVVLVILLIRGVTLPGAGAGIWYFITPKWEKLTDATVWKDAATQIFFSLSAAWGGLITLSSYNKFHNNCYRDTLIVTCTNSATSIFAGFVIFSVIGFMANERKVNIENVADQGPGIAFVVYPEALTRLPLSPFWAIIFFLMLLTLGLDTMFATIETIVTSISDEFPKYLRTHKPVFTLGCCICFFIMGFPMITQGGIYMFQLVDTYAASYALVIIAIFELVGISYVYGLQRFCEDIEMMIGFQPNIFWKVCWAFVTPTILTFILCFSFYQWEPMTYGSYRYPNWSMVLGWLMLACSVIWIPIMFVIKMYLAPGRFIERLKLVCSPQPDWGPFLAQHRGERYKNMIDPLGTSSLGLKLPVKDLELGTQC
Assay: [3H]glycine uptake inhibition in transfected COS7 cells
Format: cell-based

For `CCCCC/C=C\C/C=C\C/C=C\C/C=C\CCCC(=O)NCC(=O)O` [N-arachidonoyl glycine], which IC50 is on record?
Its IC50 is 67 ± 23 µM.
